Tests used:
[1] = tested on: PGC-1α/β knockout myotubes; test: HIF stabilizing compounds in PGC-1α/β knockout myotubes with or without SIRT1 overexpression; type: cell-based, mouse
Procedure: Next whether the ability of SIRT1 to regulate mitochondrial function independently of PGC-1α/β is mediated by HIF-1α was tested. […] Furthermore, cells expressing a mutant allele of HIF-1α that is constitutively stabilized due to the replacement of the two hydroxylated prolines with alanines (DPA) (FIG. 7A), caused genome asynchrony similar to hypoxia and treatment with DMOG (FIG. 7B).
Primary myoblasts cells were isolated from WT, SIRT1 KO (Price et al., 2012) and PGC-1α/β KO (Zechner et al., 2010) mice as previously described (Price et al., 2012). WT and PGC-1α/β KO primary myoblasts were plated and allowed to differentiate into myotubes by replacing the media with low glucose DMEM supplemented with 2% horse serum (Sigma-Aldrich) for 4 days. After the differentiation the cells were infected with empty vector or flag-SIRT1 adenovirus as described before (Gerhart-Hines et al., 2007). Media was replaced with fresh DMEM supplemented with 2% horse serum (Sigma-Aldrich) for an additional 48 hr and, after that the cells were harvested for the different assays as described. To investigate the role of HIF-1α in genome asynchrony, PGC-1α/β KO primary myotubes were treated for 12 hours with 1 mM DMOG (Sigma) or 10 μM DFO (Sigma), 24 h after infection with empty vector of flag-SIRT1 adenovirus or after 12 h treatment with […] NMN (Sigma).
RNA from skeletal muscle tissue and C2C12 cells were extracted with RNeasy mini kit (Qiagen) according to the instructions and quantified using the NanoDrop 1000 spectrophotometer (Thermo Scientific). cDNA was synthesized with the iSCRIP cDNA synthesis kit (BioRad) using 600 ng of RNA. Quantitative RT-PCR reactions were performed using 1 μM of primers and LightCycler® 480 SYBR Green Master (Roche) on an LightCycler® 480 detection system (Roche). Calculations were performed by a comparative method (2-ΔCT) using 18S as an internal control. For mtDNA analysis, total DNA was extracted with DNeasy blood and tissue kit (Qiagen). mtDNA was amplified using primers specific for the mitochondrial cytochrome c oxidase subunit 2 (COX2) gene and normalized to genomic DNA by amplification of the ribosomal protein s18 (rps18) nuclear gene. […]
Protein extracts from tissue or C2C12 cells were obtained by lysis in ice-cold lysis buffer (150 mM NaCl, 10 mM Tris HCl (pH 7.4), 1 mM EDTA, 1 mM EGTA, 1% Triton X-100, 0.5% NP-40) supplemented with a cocktail of protease and phosphatase inhibitors (Roche). Protein content was determined by the Bradford protein assay (Biorad), and 50 μg proteins were run on SDS-PAGE under reducing conditions. […] The immunostaining was detected using horseradish peroxidase-conjugated anti-rabbit or anti-mouse immunoglobulin for 1 h at room temperature.

[2] = tested on: 3- and 24-month-old C57BL/6J mice; test: NMN treatment of 3- and 24-month-old mice, skeletal muscle readouts; type: in vivo, mouse; details: NMN 500 mg/kg IP, one week
Procedure: C57BL/6J mice of 3, 6, 22, 24, or 30 months of age were obtained from the National Institutes of Aging mouse aging colony. Mice were acclimated for at least one-week prior to sacrifice. 3, and 24-month-old mice were given interperitoneal (IP) injections of 500 mg NMN/kg body weight per day or the equivalent volume of PBS for 7 consecutive days at 5:00 pm and 7:00 am on day 8 and sacrificed 4 hr after last injection. All animal studies followed the guidelines of and were approved by the Harvard Institutional Animal Care and Use Committee
Skeletal muscle mitochondria were isolated as described previously (Frezza et al., Nat. Protoc. 2:287-295 (2007)). Mitochondrial membrane potential, cytochrome c activity and succinate dehydrogenase were determined as described (Brautigan et al., Methods Enzymol. 53:128-164 (1978); Rolo et al., Biochim. Biophys. Acta. 1637:127-132 ([…]); Singer, T. P., Methods Biochem. Anal. 22:123-175 (1974)). ATP content was measured with a commercial kit according to the manufacturer's instructions (Roche).
NAD^+ from C2C12 cells and skeletal muscle was quantified with a commercially available kit (BioVision) according to the manufacturer's instructions and as described before (Gomes et al., Biochim. Biophys. Acta. 1822:185-195 (2012)).
To test whether a decline in NAD^+ availability, invokes a pseudohypoxic response in muscle that inhibits mitochondrial function, we treated 3- and 24-month-old C57BL/6J mice for one week by intraperitoneal injection of nicotinamide mononucleotide (NMN) (500 mg/kg body weight), a compound that increases NAD^+ levels in a variety of tissues. After the treatment, levels of cellular NAD^+ in both the young and old mice were approximately 2-fold higher, such that the treated 24-month-old mice resembled the untreated 3-month-olds (FIG. 10A).

SIRT1 KO mice = test: NMN treatment of inducible SIRT1 KO mice; type: in vivo, mouse; details: skeletal muscle of SIRT1 KO versus WT mice
Procedure: Whole body adult-inducible SIRT1 knockout mice were treated with tamoxifen for 5 weeks and the efficiency of deletion in DNA from tail samples was determined by PCR. Animals were then maintained on regular diet for 4 months. For the fasting experiments, mice were fasted for 16 hrs prior to sacrifice. All animal care followed the guidelines and was approved by the Institutional Animal Care and Use Committees (IACUCs) at Harvard
The inducible SIRT1 KO mouse allowed the testing of the involvement of SIRT1 in the effects of NMN in vivo.
C57BL/6J mice of 6, 22, or 30 months of age were obtained from the National Institutes of Aging mouse aging colony. Additionally 22 months old caloric restricted mice were also obtained from the National Institutes of Aging mouse aging colony. EGLN1 KO, SIRT1 KO and SIRT1 OE mice were generated as previously described (Minamishima et al., 2008; Price et al., 2012). […]
RNA from skeletal muscle tissue and C2C12 cells were extracted with RNeasy mini kit (Qiagen) according to the instructions and quantified using the NanoDrop 1000 spectrophotometer (Thermo Scientific). cDNA was synthesized with the iSCRIP cDNA synthesis kit (BioRad) using 600 ng of RNA. Quantitative RT-PCR reactions were performed using 1 μM of primers and LightCycler® 480 SYBR Green Master (Roche) on an LightCycler® 480 detection system (Roche). […]

[3] = skeletal muscle, treated old (24-month) mice

Row | SMILES | expression of mitochondrial-encoded genes ([1]; DMOG compared to vehicle control, no SIRT1 overexpression) | HIF-1α protein (immunoblot) ([1]; DMOG versus DMSO (FIG. 21C)) | effect on induction of mitochondrial ETC genes by SIRT1 overexpression ([1]; SIRT1 adenovirus, 1 mM DMOG or 10 μM DFO, 12 hours) | expression of HIF-1α target genes (PGK-1, Glut1, PKD1, VEGFa) ([2]; gastrocnemius, qPCR, 24-month-old mice) | HIF-1α in muscle (immunoblot) ([2]; gastrocnemius, 24-month-old mice) | levels of cellular NAD+ ([2]; gastrocnemius, young and old mice, versus untreated) | mitochondrial membrane potential ([2]; isolated skeletal muscle mitochondria, treated old (24-month) mice) | ATP levels [2, 3] | COX activity [2, 3] | ability of NMN to induce mitochondrially-encoded genes (SIRT1 KO mice; qPCR) | ability of NMN to improve mitochondrial function (SIRT1 KO mice; mitochondrial membrane potential (FIG. 10I))
1 | COC(=O)CNC(=O)C(=O)OC [DMOG, dimethyloxaloylglycine] | induced a decline | stabilizes HIF-1α protein | completely blocked | – | – | – | – | – | – | – | –
2 | NC(=O)c1ccc[n+]([C@@H]2O[C@H](COP(=O)([O-])O)[C@@H](O)[C@H]2O)c1 [NMN, nicotinamide mononucleotide] | – | – | – | suppressed the expression | reversed the age-induced increase | approximately 2 fold | restoration of mitochondrial membrane potential to the levels of the young mice | increases | increases | lost in animals lacking SIRT1 | lost in animals lacking SIRT1

Source: patent US20200291100A1, “TREATMENT OF AGE-RELATED AND MITOCHONDRIAL DISEASES BY INHIBITION OF HIF-1 ALPHA FUNCTION” (President and Fellows of Harvard College, priority 2012, published 2020)
